# Experiments:
# [1] = test system: H4IIE hepatoma cells; assay: DNA synthesis (3H-thymidine incorporation) in H4IIE cells; assay type: cell-based
# Method: Incorporation of uridine or thymidine was used to define the change in rate of […] synthesis, respectively, in response to a mitogen such as insulin. Specifically, quiescent H4IIE cells were prepared by placing the cultures (in 24-well dishes) into serum-free a-minimal essential medium for 3 days. It is of note that the normal growth media for H4IIE cells is α-MEM containing 10% fetal bovine serum (FBS). After reaching quiescence, the cells were stimulated with 1 μM insulin and incubated for either 6 hours or 24 hours in the presence of 1 μCi/ml ^3H-uridine or ^3H-thymidine, respectively. Cells were subsequently lysed with detergent and the nucleic acids precipitated with 5% trichloroacetic acid. The precipitated material was collected on glass fibre filters and the radioactive content measured by scintillation counting. […] Furthermore, while complete inhibition of DNA synthesis by MIBG is obtained at approximately 20 μM, higher concentrations decrease basal DNA synthesis below control levels.
# [2] = test system: porcine femoral artery; assay: balloon angioplasty of the porcine femoral artery in vivo; set-up: species or system pigs; conditions: 14 days
# Excerpt: To test the effectiveness of MIBG under in vivo conditions, this compound was applied to the femoral artery after balloon angioplasty. This model provided a means of testing both MIBG and the method of application. Specifically, male castrated farm pigs (25-30 kg) were anaesthetized and maintained on isoflurane throughout the procedure. With the pig in a supine position, the left femoral artery was exposed from the bifurcation of the femoral and superficial femoral arteries to the point of insertion of the femoral artery into the groin. A mixture of nitroglycerin and papaverine was applied to the vessel and the area was covered with a saline-soaked sponge to keep the tissues moist. The right femoral artery was also exposed, treated and covered with a sponge. The left femoral was then clamped at both groin insertion (proximal) and bifurcation (distal) points, and an arteriotomy made at the bifurcation. The balloon (6.0×20 mm) was inserted through the arteriotomy in a retrograde manner (i.e. toward the groin) to a position 20 mm from the arteriotomy and the proximal clamp removed. The balloon was inflated for 1 minute, deflated and carefully removed, and the arteriotomy was closed with 6.0 ProleneTM suture. MIBG in combination with a biocompatible glue, in this example, Tisseel®, was applied to the surface of the vessel extending from the arteriotomy to the proximal region past the site of balloon inflation. The fibrin glue ensured that MIBG slowly diffused into the vessel. Furthermore, the fibrin glue helps to retain MIBG at the site for several days. The right femoral was handled as described above. […] The extent of restenosis was subsequently monitored by morphometry. […] Digital images were captured with a DAGE-MTI CCD camera and analyzed with SigmaScan Software. The neointimal and medial areas are quantified and used to calculate the neointimal index: neointimal area/medial area. […] Even though the vehicle cannot be detected after 14 days, we conclude that it remains for the minimum period necessary.
# [3] = test system: porcine coronary artery smooth muscle cells
# [4] = test system: MAP kinase; assay: MAP kinase activity gel after insulin stimulation of H4IIE cells; assay type: cell-based; conditions: 50 μM MIBG; 1 μM insulin; 2-20 minutes; FIG. 27
# Method: Extracts were prepared at 2, 5, 10 and 20 minutes after insulin addition. MAP kinase activity was measured using an activity gel protocol with myelin basic protein polymerized in the separating gel, as described in Yau and Zahradka, 1997, Mol Cell Biochem 172: 59-66. Scanning densitometry was used to quantify the band intensities. The location of the 42 and 44 kDa MAP kinase bands was confirmed by Western blot analysis.
# [5] = test system: smooth muscle cells; conditions: cited from earlier work
# [6] = test system: smooth muscle cells derived from human arterial conduits; assay: DNA synthesis and cytotoxicity in human smooth muscle cells; conditions: FIG. 26A
# [7] = test system: H4IIE hepatoma cells; assay: MTT staining of viable cells (cell number); assay type: cell-based
# Method: In this assay, H4IIE cells are plated on 96-well dishes, and incubated in standard growth medium. Separate plates were prepared for comparing the effects of MIBG after 2 or 4 days. At those time points, 200 μl of 5 mg/ml MTT was added to each well, and the cells were incubated an additional 4 hours. The medium was removed and cells were treated with acidified isopropanol and the absorbance read at 570 nm. Increased absorbance is indicative of increases in cell number.
# [8] = test system: L1210; conditions: non-neuronal cell line L1210; cited from earlier work
# [9] = test system: smooth muscle cells; assay: Boyden chamber smooth muscle cell migration in response to Angiotensin II; assay type: cell-based; conditions: 20 μM; 10 μM Angiotensin II in lower compartment; FIG. 17
# Method: Specifically, smooth muscle cells were seeded into the upper chamber of a Boyden chamber, which consists of two compartments that are separated by a permeable membrane. […] Specifically, migration to the lower compartment was determined by counting cells on the underside of the membrane. Data are presented as means ± standard error for six independent determinations.
substance,measurement,setting,value
meta-iodobenzylguanidine [MIBG],concentration for complete inhibition of DNA synthesis,"[1]; 1 μM insulin, 24 hours, FIG. 2",approximately 20 μM
same,inhibition of DNA synthesis (thymidine incorporation),[1]; H4IIE cells,inhibits DNA synthesis
same,restenosis after balloon angioplasty,"[2]; 25 mM in a 1.0 ml Tisseel bolus applied to vessel surface, FIGS. 20 and 21",effectively prevents restenosis
same,medial fibrosis or cell loss,"[2]; 25 mM in a 1.0 ml Tisseel bolus, FIG. 20",no evidence of medial fibrosis
same,levels at which cytotoxic,[3],≥ 200 µM
same,decrease of basal DNA synthesis,"[3]; MIBG alone, highest concentration tested, FIG. 8",≤ 40 % of the control
same,concentrations inhibiting stimulation of DNA and RNA synthesis,"[3]; stimulation by angiotensin II and serum, FIGS. 6 and 7",20 to 50 µM
same,MAP kinase activation by insulin,[4],does not inhibit MAP kinase activation by insulin
same,DNA synthesis (thymidine uptake),[5],had no effect on DNA synthesis
same,cell number,[5],prevents an increase in cell number
same,production of collagen type I,[5],decreased the production of collagen type I
same,DNA synthesis and cytotoxicity compared with porcine cells,[6],comparable effects in both porcine and human tissues
same,effect on cell number,"[7]; 20 μM, 2 or 4 days, FIG. 3",effective in preventing increases in cell number
same,MTT staining,"[7]; 200 μM, up to 96 hours",60 % of control values
same,concentration in cells relative to the surrounding medium,[8],15 times
same,smooth muscle cell migration,[9],inhibited smooth muscle cell migration
